According to ChEMBL document CHEMBL3112428, “Biological evaluation of diazene derivatives as anti-tubercular compounds” (Eur J Med Chem, 2014):
The source made the active and inactive calls. The rule behind the calls is not given here.

Tests used:
Format in all cases: functional, organism-based
[1] = tested on: Mycobacterium tuberculosis; assay: Antituberculosis activity against multidrug-resistant Mycobacterium tuberculosis LAM1 assessed as growth inhibition at 1 to 5 ug/ml measured everyday by BACTEC assay
[2] = tested on: Mycobacterium tuberculosis; assay: Antituberculosis activity against multidrug-resistant Mycobacterium tuberculosis LAM1 assessed as growth inhibition at 0.1 ug/ml measured everyday by BACTEC assay
[3] = tested on: Mycobacterium tuberculosis; assay: Antituberculosis activity against multidrug-resistant Mycobacterium tuberculosis LAM1 assessed as growth inhibition at <= 10 ug/ml measured everyday by BACTEC assay

## O=C(/N=N/c1ccc(C(F)(F)F)cc1)Nc1ccccc1
[1]
  growth inhibition (GI): Active

## NNC(=O)c1ccncc1 [ISONIAZID]
[2]
  growth inhibition (GI): inactive

## CCOC(=O)/N=N/C(=O)Nc1ccc(C)cc1
[3]
  growth inhibition (GI): inactive
